# Patent US10562857B2 (AFASCI, Inc., priority 2015, dated 2020)
# Assays:
# Cav3.2 channel = biological target: T1, Cav3.2 channel (Homo sapiens, UniProt O95180); assay: Whole-cell patch clamp of T-type Cav3.2 channel expressed in HEK293 cells; type: cell-based; details: HEK293; Table 1 primary screening; 1 μM
# T1 construct: expressed in transfected cells; host or cells: HEK-293, tetracycline inducible expression system (Invitrogen)
# [1] = test system: incision-induced pain in mice; assay: Incision-induced acute pain in mice, von Frey test; type: in vivo, mouse; details: 30 mg/kg I.P.
# Method: FIG. 9. Effects of EXAMPLE-116, -118 or ML218 (a reference compound) on incision-induced acute pain in mice (C57BL/6, male, ˜2 months old; n=8 mice per treatment group). Mechanical pain threshold assessment (von Frey monofilament test) of the mice's incision left hindpaws. Each mouse received either EXAMPLE-116, -118, or ML218 (as a reference compound, each 30 mg/kg, I.P.) or vehicle (2% DMSO in 0.5% HPC, I.P.). Mechanical pain responses were measured at 0.5, 1, 2, 4, and 5 hours after treatment.
# To further confirm the Cav3 modulator effects on acute pain and neurogenic inflammatory pain, an incision-pain mode in mice was used. Postoperative pain model induced by a deep incision in the hindpaw produces robust mechanical allodynia (Pogatzki et al., 2003). Mechanical pain thresholds were assessed using von Frey monofilament test of the incised left hindpaws. Each mouse received either EXAMPLE-116, -118, ML218 (as a reference compound, each 30 mg/kg, I.P.) or vehicle (2% DMSO in 0.5% HPC, I.P., n=8 mice per treatment group). Mechanical pain responses were measured at 0.5, 1, 2, 4, and 5 hours after treatment.
# T-type Ca2+ current = details: Avdonin et al., 2000; cited from earlier work
# T1 sequence (O95180 whole entry): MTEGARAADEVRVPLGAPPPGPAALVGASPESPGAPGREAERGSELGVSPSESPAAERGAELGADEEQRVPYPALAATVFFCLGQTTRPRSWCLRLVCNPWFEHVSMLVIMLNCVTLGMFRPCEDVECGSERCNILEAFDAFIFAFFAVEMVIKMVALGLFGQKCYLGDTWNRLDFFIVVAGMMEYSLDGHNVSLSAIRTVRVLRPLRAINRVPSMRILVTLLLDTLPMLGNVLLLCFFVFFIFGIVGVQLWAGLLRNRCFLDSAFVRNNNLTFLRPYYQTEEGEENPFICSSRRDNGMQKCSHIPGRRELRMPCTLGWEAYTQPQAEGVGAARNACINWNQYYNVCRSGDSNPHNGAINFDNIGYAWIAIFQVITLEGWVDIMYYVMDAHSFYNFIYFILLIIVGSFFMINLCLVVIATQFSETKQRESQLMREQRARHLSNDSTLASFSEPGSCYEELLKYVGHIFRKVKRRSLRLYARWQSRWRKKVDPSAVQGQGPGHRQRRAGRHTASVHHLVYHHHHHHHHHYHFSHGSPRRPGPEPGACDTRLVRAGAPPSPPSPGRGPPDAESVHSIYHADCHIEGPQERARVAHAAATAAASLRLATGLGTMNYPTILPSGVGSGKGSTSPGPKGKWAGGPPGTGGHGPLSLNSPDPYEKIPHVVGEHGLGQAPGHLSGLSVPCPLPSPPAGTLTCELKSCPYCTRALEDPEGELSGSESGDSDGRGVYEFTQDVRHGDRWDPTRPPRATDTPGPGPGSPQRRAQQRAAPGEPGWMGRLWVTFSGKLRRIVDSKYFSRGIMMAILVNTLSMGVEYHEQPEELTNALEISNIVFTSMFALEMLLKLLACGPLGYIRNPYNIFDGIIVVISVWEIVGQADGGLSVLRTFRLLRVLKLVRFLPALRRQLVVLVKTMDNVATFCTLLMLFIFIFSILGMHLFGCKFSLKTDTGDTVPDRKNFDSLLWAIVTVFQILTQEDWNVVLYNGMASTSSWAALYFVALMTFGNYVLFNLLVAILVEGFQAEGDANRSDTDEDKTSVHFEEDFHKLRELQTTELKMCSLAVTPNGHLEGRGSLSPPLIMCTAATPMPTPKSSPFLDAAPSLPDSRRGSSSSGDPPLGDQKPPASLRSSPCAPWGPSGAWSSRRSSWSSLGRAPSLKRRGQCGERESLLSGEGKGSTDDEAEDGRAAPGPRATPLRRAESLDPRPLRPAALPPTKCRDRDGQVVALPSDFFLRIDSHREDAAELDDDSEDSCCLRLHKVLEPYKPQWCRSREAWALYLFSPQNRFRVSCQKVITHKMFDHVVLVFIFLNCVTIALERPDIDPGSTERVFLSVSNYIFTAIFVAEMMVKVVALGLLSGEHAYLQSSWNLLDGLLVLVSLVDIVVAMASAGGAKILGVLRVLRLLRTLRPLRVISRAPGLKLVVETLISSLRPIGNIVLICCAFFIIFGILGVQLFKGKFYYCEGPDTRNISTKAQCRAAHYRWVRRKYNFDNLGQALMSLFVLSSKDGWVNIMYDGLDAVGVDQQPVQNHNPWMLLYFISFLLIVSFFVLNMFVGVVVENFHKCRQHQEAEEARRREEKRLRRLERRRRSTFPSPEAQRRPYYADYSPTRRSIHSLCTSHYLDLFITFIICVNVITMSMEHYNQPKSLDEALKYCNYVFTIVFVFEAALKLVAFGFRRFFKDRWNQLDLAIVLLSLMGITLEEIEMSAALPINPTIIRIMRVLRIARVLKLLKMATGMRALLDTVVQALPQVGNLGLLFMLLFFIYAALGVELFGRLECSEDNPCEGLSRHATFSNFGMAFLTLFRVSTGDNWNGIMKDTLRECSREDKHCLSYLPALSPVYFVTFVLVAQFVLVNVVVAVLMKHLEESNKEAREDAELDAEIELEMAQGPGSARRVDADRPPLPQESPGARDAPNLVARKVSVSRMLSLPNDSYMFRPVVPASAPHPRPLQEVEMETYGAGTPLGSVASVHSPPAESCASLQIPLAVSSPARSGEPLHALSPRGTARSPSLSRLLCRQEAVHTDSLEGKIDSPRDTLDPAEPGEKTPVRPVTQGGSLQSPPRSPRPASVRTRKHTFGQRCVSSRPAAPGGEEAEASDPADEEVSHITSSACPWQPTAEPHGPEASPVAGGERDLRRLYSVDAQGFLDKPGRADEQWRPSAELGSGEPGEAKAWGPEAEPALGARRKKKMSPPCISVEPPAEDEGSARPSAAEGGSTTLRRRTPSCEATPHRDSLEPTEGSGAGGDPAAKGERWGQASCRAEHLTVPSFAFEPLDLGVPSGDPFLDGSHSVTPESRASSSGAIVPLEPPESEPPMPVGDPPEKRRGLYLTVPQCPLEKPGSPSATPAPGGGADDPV
inhibition at 1 µM (Cav3.2 channel) [%],Compound,"mechanical pain threshold, incision-induced pain [1]",potency of T-type inhibition relative to L-type Ca2+ current or voltage-gated Na+ current (T-type Ca2+ current)
20,"O=C(CCc1cccc(Cl)c1)Nc1nnc(-c2ccc(Cl)s2)o1 [Example 118, 3-(3-Chlorophenyl)-N-(5-(5-chlorothiophen-2-yl)-1,3,4-oxadiazol-2-yl)propanamide]",inhibited incision-induced inflammatory pain,–
10,"O=C(Nc1nnc(-c2ccc(Cl)s2)o1)N1C(=O)c2cc(Cl)c(Cl)cc2C1=O [Example 116, 5,6-Dichloro-N-(5-(5-chlorothiophen-2-yl)-1,3,4-oxadiazol-2-yl)-1,3-dioxoisoindoline-2-carboxamide]",inhibited incision-induced inflammatory pain,–
–,COCC(=O)O[C@]1(CCN(C)CCCc2nc3ccccc3[nH]2)CCc2cc(F)ccc2[C@@H]1C(C)C [mibefradil],–,3-10 times
